Results reported in patent EP0877020A1, “ACRIDONE DERIVATIVE” (Eisai Co., Ltd., priority 1995, dated 1997).
Read-outs that look alike come from different tables or passages of the source. Blank lines part the entries; values can stand above or below the molecule they belong to.

Legend:
[1] = test system: RBL-2H3 cells; assay: Repression of liberation of mediators (serotonin, histamine, arachidonic acid) from RBL-2H3 cells; format: cell-based, rat
Description: [Study on activity to repress the liberation of various mediators from rat basophilic leukemic cell strain (RBL-2H3) and activity to repress thyrosine kinase]
The cells of RBL-2H3, one species of rat cell line, carry out not only the liberation of histamine and serotonin but also the formation and liberation of prostaglandins, TNFα, etc., i.e. inflammatory mediators, owing to the specific antigen of the IgE antibody bound to the IgE receptor. In the present test system, therefore, the cells were marked with serotonin and arachidonic acid labeled in advance with [^3H] and cultured in the presence of a compound under test and in the absence thereof and the amounts of the mediators liberated in the culture medium were measured. Thus, the given compounds were tested for activity to repress the liberation of various mediators. The TNFα was determined by means of bioassay.

[2] = test system: TNFα; assay: Repression of formation and liberation of TNFα (bioassay); format: cell-based, rat; conditions: at the same concentration (12 µM)
[3] = test system: Jurkat cells (T-cells); assay: Thyrosine kinase selectivity in Jurkat cells (antigenic stimulus); format: cell-based
[4] = test system: phospholipase C; assay: Repression of activation of phospholipase C, intracellular substrate of the thyrosine kinase; format: cell-based; conditions: at the same concentration (12 µM)
[5] = Rattus norvegicus, RBL-2H3 cells, [3H]-labelled serotonin, read-out: IC50 (µM) in liberation of serotonin from RBL-2H3 cells

Molecule: 3,4-Dimethyl-10-[3-(2-imidazoylmethyl)aminopropyl]-9 acridone [Example 32]
- IC50 ([1]; RBL-2H3 cells, [3H]-labelled serotonin, read-out: IC50 (µM) in liberation of serotonin from RBL-2H3 cells): 0.6 µM

- IC50 [1, 5]: 1.7 µM
Molecule: Cc1c(F)cc2c(=O)c3ccccc3n(CCCN)c2c1C [Example 1, 2-Fluoro-3,4-dimethyl-10-(3-aminopropyl)-9-acridone]

Molecule: Cc1ccc2c(=O)c3ccccc3n(CCCN)c2c1C [Example 2, 3,4-Dimethyl-10-(3-aminopropyl)-9-acridone]
- IC50 ([1]; Rattus norvegicus, RBL-2H3, RBL-2H3 cells, [3H]-labelled serotonin, read-out: IC50 (µM) in liberation of serotonin from RBL-2H3 cells): 6 µM

Molecule: Cc1ccc2c(=O)c3ccccc3n(CCCN)c2c1C.O=C(O)C(=O)O [Example 3, 3,4-Dimethyl-10-(3-aminopropyl)-9-acridone oxalate]
- formation and liberation of TNFα [2]: repressed
- IC50 ([1]; Rattus norvegicus, RBL-2H3, due to the antigenic stimulus, read-out: IC50 value, liberation of arachidonic acid from the RBL-2H3 cells): 12 µM
- IC50 ([1]; Rattus norvegicus, RBL-2H3, due to the antigenic stimulus, read-out: IC50 value, liberation of histamine from the RBL-2H3 cells): 12 µM
- IC50 ([1]; Rattus norvegicus, RBL-2H3, due to the antigenic stimulus, read-out: IC50 value, liberation of serotonin from the RBL-2H3 cells): 12 µM
- activity to repress the antigenic stimulus in the Jurkat cells ([3]; Jurkat cells): absolutely no activity
- activity to repress such thyrosine kinases as p561ck and fyn ([3]; concluded from the Jurkat cell test): no activity
- activation of phospholipase C [4]: repressed

- IC50 [1, 5]: 3 µM
Molecule: Cc1ccc2c(=O)c3ccccc3n(CCCNCc3ccccc3)c2c1C [Example 19, 3,4-Dimethyl-10-(3-benzylaminopropyl)-9-acridone]
